Source: patent US20240109925A1, “Enhanced Anti-Proliferative and Antitumor Immune Effects of Mitochondria-Targeted Hydroxyurea” (The Medical College of Wisconsin, Inc., priority 2021, published 2024)
Where two headings read alike, the source gives them in different places.

Tests used:
[1] = system: HCT116 human colon cancer cells; assay: Cell proliferation (cell confluence), IncuCyte Live-Cell Analysis system; assay type: cell-based; settings: for IC50: Homo sapiens, at ~90% confluence of control; for Cell Confluence (%): when control cells reached ~90% confluence, n = 4
Source text: FIG. 1. Effects of HU and Mito-HUs on proliferation of HCT116 human colon cancer cells (A) Effects of HU and Mito-HUs on the proliferation of HCT116 cells were monitored in the IncuCyte Live-Cell Analysis system. The IncuCyte Analyzer provides real-time updates on cell confluence, based on segmentation of high definition-phase contrast images. Representative cell images were shown as segmentation mask illustrated in brown when control cells reached 90% confluence (vertical solid black line). (B) The IC50 values were determined at the point at which control cells reached ˜90% confluence (vertical solid black line). Relative cell confluence (control is taken as 100%) is plotted against concentration. Dashed lines represent the fitting curves used to determine the IC50 values as indicated. Data shown are the means & SD.
The following cell lines were obtained from the American Type Culture Collection (Manassas, VA), where they were regularly authenticated: HCT116 (ATCC Cat #CRL-247, human colon cancer cells) and MiaPaCa-2 (ATCC Cat #CRL-1420, human pancreatic cancer cells). All cells were cultured in a humidified incubator at 37° C. and 5% carbon dioxide. HCT116 cells were maintained in RPMI 1640 medium (Thermo Fisher Scientific, Cat #11875), supplemented with 10% fetal bovine serum. MiaPaCa-2 cells were maintained in Dulbecco's Modified Eagle Medium (Thermo Fisher Scientific, Waltham, MA; Cat #11965) supplemented with 10% fetal bovine serum. All cells were stored in liquid nitrogen and used within 20 passages after thawing.
The IncuCyte Live-Cell Analysis system (Essen Bioscience Inc., Ann Arbor, MI) was used to monitor cell proliferation (Cheng et al., 2013, 2016; Boyle et al., 2018). As shown in previous publications (Cheng et al., 2013, 2016), this imaging system is probe-free and noninvasive, and enables continuous monitoring of cell confluence over several days. The increase in the percentage of cell confluence was used as a surrogate marker of cell proliferation. In a 96-well plate, cells were plated at 1,000 cells per well in triplicates and left to adhere overnight. Cells were then treated with HU and Mito-HUs, and the cell confluency was recorded over several days in the IncuCyte Live-Cell Analysis system.

[2] = system: CD4 T cells; assay: In vitro differentiation of CD4 T cells (Treg / IFNg-YFP Teff), flow cytometry; assay type: cell-based, mouse; settings: for Concentration with Maximum Effect on IFN -YFP: tested concentration with maximum effect, six days culture
Source text: FIG. 4. Effects of Mito10-HU on in vitro differentiation of CD4 T cells (A) The gating strategy reflects data from one DMSO control sample. First, the total population of cells was gated (FSC-A vs SSC-A). Then, single cells were gated (SSC-W vs SSC-H). Within the single cell population, we gated on the live CD4 T cells using a fixable LIVE/DEAD stain (CD4 vs DEAD). Within the live CD4 T cells we gated on CD25+FOXP3+Tregs (FOXP3 vs CD25), as well as IFNg-YFP+CD4 T cells (IFNg-YFP vs CD4). (B) Live CD4 T cells were gated within the single cell populations, at varying concentrations of Mito10-HU, along with DMSO controls (B, top row). CD25+FOXP3+Tregs (B, middle row) and IFNg-YFP+CD4 T cells (B, bottom row) were gated within the live CD4 T cell populations, at varying concentrations of Mito10-HU, along with DMSO controls. (C) Effects of Mito10-HU on live CD4+T cells within the lymphocyte gate (C, left), the frequency of FOXP3+CD25+cells within the live CD4+T cells (C, middle), and Teff function is shown as the frequency of IFNg-YFP positive cells within the live CD4+T cells (C, right). Data shown are the means & SD, n=2 per treatment group. *p<0.05, **p<0.01 vs control.
To differentiate CD4^+ T cells into a Treg phenotype, splenocytes from SMARTA triple-reporter mice were processed and the red blood cells were lysed using an ACK (ammonium-chloride-potassium) lysis buffer. The cells were then activated with […] GP61-80 peptide (GenScript, Piscataway, NJ) and 5 ng/mL TGF-b1 (Shenandoah Biotechnology, Inc., Warwick, PA). After one day of initial skewing, […] IL-2 along with HU or Mito-HUs (n=4-20) of varying concentrations were added to the culture. Cells were cultured for six days and split once cells reached confluency; cells were replenished with IL-2 and compound (i.e., MitoHUs) accordingly. After six days in culture, cells were stained to assess the viability and phenotypic analysis via flow cytometry. LIVE/DEAD fixable violet or aqua dead cell stain (Invitrogen) was used to assess cell viability. Only live cells were gated out for further functional analysis by using a fixable LIVE/DEAD stain. First, total population of cells was gated (FSC-A vs SSC-A). Then, single cells were gated (SSC-W vs SSC-H). Within the single cell population, we gated on the live CD4 T cells using a fixable Live/Dead stain (CD4 vs DEAD). Within the live CD4 T cells, we gated on CD25^+FOXP3^+ Tregs (FOXP3 vs CD25), as well as IFNg-YFP^+ CD4 T cells (IFNg-YFP vs CD4).
The following antibodies were used for flow cytometry staining: APC-Cy7 anti-mouse CD4 (clone: GK1.5; BioLegend, San Diego, CA), APC anti-mouse CD25 (clone: PC61; BioLegend), and PE anti-mouse FOXP3 (clone: FJK-165; eBioscience, San Diego, CA). Flow cytometry data were acquired using a BD Celesta flow cytometer (BD Biosciences, San Jose, CA) flow cytometer and analyzed using FlowJo (Treestar, Inc., Ashland, OR) (FlowJo Software, 2019).

[3] = HCT-116, HCT116, read-out: IC50 proliferation of HCT116 cells
[4] = HCT-116, mean ± SD, HCT116, read-out: IC50 Cell Proliferation (FIG. 1)

| Structure (SMILES) | inhibition of proliferation of HCT116 cells ([1]; HCT116) | IC50 [1, 3] | IC50 [1, 4] | Concentration with Maximum Effect on IFN -YFP [2] | Cell Confluence (%) ([1]; 10 μM) | Cell Confluence (%) ([1]; 30 μM) | Cell Confluence (%) ([1]; 100 μM) | also measured |
| --- | --- | --- | --- | --- | --- | --- | --- | --- |
| NC(=O)NOCCCCCCCCCCCC[P+](c1ccccc1)(c1ccccc1)c1ccccc1.O=C([O-])C(F)(F)F [Mito12-HU, 12-[(carbamoylamino)oxy]-dodecyltriphenylphosphonium trifluoroacetate] | dose-dependently inhibited proliferation | 1800 nM | 1800 ± 50 nM | 10 µM |  |  |  |  |
| NC(=O)NOCCCCCCCCCCCCCCCC[P+](c1ccccc1)(c1ccccc1)c1ccccc1.O=C([O-])C(F)(F)F [Mito16-HU, 16-[(carbamoylamino)oxy]-hexadecyltriphenylphosphonium trifluoroacetate] | dose-dependently inhibited proliferation | 510 nM | 500 ± 10 nM | 0.4 µM |  |  |  |  |
| NC(=O)NOCCCCCCCCCCCCCC[P+](c1ccccc1)(c1ccccc1)c1ccccc1.O=C([O-])C(F)(F)F [Mito14-HU, 14-[(carbamoylamino)oxy]-tetradecyltriphenylphosphonium trifluoroacetate] | dose-dependently inhibited proliferation | 740 nM | 900 ± 40 nM | 1.5 µM |  |  |  |  |
| NC(=O)NOCCCCCCCCCC[P+](c1ccccc1)(c1ccccc1)c1ccccc1.O=C([O-])C(F)(F)F [Mito10-HU, 10-[(carbamoylamino)oxy]-decyltriphenylphosphonium trifluoroacetate] | dose-dependently inhibited proliferation | 8000 nM | 8500 ± 410 nM | 12.5 µM | 26.84% | 1.74% | 1.53% | Cell Confluence (%) ([1]; 0.1 μM): 82.13%; Cell Confluence (%) ([1]; 0.3 μM): 84.69%; Cell Confluence (%) ([1]; 1 μM): 83.91%; Cell Confluence (%) ([1]; 3 μM): 64.31%; Cell Confluence (%) ([1]; 5 μM): 67.01%; Cell Confluence (%) ([1]; 12.5 μM): 13.75%; Cell Confluence (%) ([1]; 15 μM): 8.68%; Cell Confluence (%) ([1]; 20 μM): 3.45%; inhibition of cell proliferation, combination with AZD-3965 ([1]; Mito10-HU (5 μM) together with AZD-3965 (100 μM), HCT-116): synergistically inhibited; inhibition of cell proliferation, combination with syrosingopine (combination index) ([1]; Mito10-HU (5 μM) together with syrosingopine (7.5 μM), HCT116): synergistic; FOXP3+ Treg differentiation ([2]; six days): inhibited FOXP3^+ Treg differentiation and/or survival; Teff IFNg production ([2]; six days): promoted Teff IFNg production |
| NC(=O)NO [HU, Hydroxyurea] |  |  | 180000 ± 6700 nM | 200 µM | 89.91% | 91.61% | 66.96% | Cell Confluence (%) ([1]; 150 μM): 48.62%; Cell Confluence (%) ([1]; 200 μM): 31.90%; Cell Confluence (%) ([1]; 250 μM): 22.99%; Cell Confluence (%) ([1]; 300 μM): 17.30%; Cell Confluence (%) ([1]; 400 μM): 11.42%; Cell Confluence (%) ([1]; 500 μM): 8.79%; Cell Confluence (%) ([1]; 1000 μM): 5.40%; Cell Confluence (%) ([1]; 3000 μM): 3.43% |
| NC(=O)NOCCCCCCCCCCCCCCCCCCCC[P+](c1ccccc1)(c1ccccc1)c1ccccc1.O=C([O-])C(F)(F)F [Mito20-HU, 20-[(carbamoylamino)oxy]-eicosanyltriphenylphosphonium trifluoroacetate] | dose-dependently inhibited proliferation | 230 nM | 230 ± 20 nM | 0.3 µM |  |  |  | lowest concentration with maximal effect on Teff activation ([2]; IFNg-YFP): 0.3 mM |
